ChEMBL document CHEMBL1156829 (Proc Natl Acad Sci U S A, 2008)
pEC50: −log10 of the molar value.

How the values were obtained:
Plasmodium falciparum [1] = test: NOVARTIS: Inhibition of Plasmodium falciparum W2 (drug-resistant) proliferation in erythrocyte-based infection assay; assay type: functional, organism-based; conditions: Plasmodium falciparum, W2; read-out: EC50
[2] = NOVARTIS: Cytotoxicity against human hepatocellular carcinoma cell line (Huh7); assay type: toxicity, cell-based, Huh-7; conditions: Huh7 cells (hepatocellular carcinoma cell line)
Plasmodium falciparum [3] = test: NOVARTIS: Inhibition of Plasmodium falciparum 3D7 (drug-susceptible) proliferation in erythrocyte-based infection assay; assay type: functional, organism-based; conditions: Plasmodium falciparum, 3D7

Row | Compound | pEC50 (Plasmodium falciparum [1]) | CC50 [2] | pEC50 (Plasmodium falciparum [3])
1 | c1ccc(/C2=N/c3ccccc3/N=C(/c3ccccc3)c3ccccc32)cc1 | 6.11 | > 100000 nM | 6.17
2 | Cc1ccc(NC(C)C(=O)Nc2ccc(C#N)cc2)cc1S(=O)(=O)N1CCCCC1 (stereo not drawn) | 6.35 | 59500 nM | 6.39
3 | Cc1cc(Nc2ccc(Cl)cc2)nc(NCc2ccccc2)n1 | 6.82 | 19600 nM | 7.04
4 | CCCN(CCC)S(=O)(=O)c1ccc(C(=O)Nc2ccccc2C(=O)Oc2ccc3c(c2)c(C(=O)OCC)c(C)n3-c2ccccc2)cc1 | 6.13 | > 100000 nM | 6.14
5 | CN(C)CCNc1cc(-c2ccc3ccccc3c2)nc2ccccc12 | 6.14 | > 100000 nM | 6.09
6 | Cc1ccc2cc3c(N)c4cccc(C)c4nc3nc2c1 | 7.13 | > 10000 nM | 6.94
7 | COc1ccc2nc(C)cc(Nc3ccc(Oc4ccc5ccccc5c4Cl)c(Cl)c3)c2c1 | 6.31 | 64100 nM | 7.00
8 | O=[N+]([O-])c1ccc(C=NNc2nc3ccccc3[nH]2)cc1 | 6.13 | > 100000 nM | 6.09
9 | COc1ccc(-c2csc3ncnc(Cl)c23)cc1OC | 6.14 | > 100000 nM | 5.64
10 | CCOc1ccc(-c2nc(NC(=O)CS(=O)(=O)c3ccccc3)sc2C)cc1 | 6.13 | > 100000 nM | 6.28
11 | OCCNc1nc(Nc2ccc(F)cc2)nc2ccccc12 | 6.13 | > 100000 nM | 6.65
12 | CN(C)CCCNc1ccnc2cc(Cl)ccc12 | 7.12 | > 10000 nM | 7.11
13 | CCOc1ccc(C(=O)C[N+]2=C(C)c3ccc(C)n3CC2)cc1 | 6.12 | > 100000 nM | 5.79
14 | Cc1cnc(NC(=O)Nc2ccc(-c3ccc(NC(=O)Nc4ncc(C)s4)c(C)c3)cc2C)s1 | 7.12 | > 10000 nM | 7.47
15 | COc1ccc(N2CCN(C(CNC(=O)CC(C)C)c3ccco3)CC2)cc1 (stereo not drawn) | 6.12 | > 100000 nM | 5.17
16 | CC(C)CN(C(C)C(=O)NC(CN1CCCC1)c1ccccc1)S(=O)(=O)Cc1ccccc1 (stereo not drawn) | 7.12 | > 10000 nM | 7.22
17 | CN(C)c1ccc(NC=CC(=O)C(C)(C)C)cc1 | 6.55 | 36900 nM | 5.98
18 | COc1ccc(-c2cc(-c3ccc(C)cc3)[nH]n2)c(O)c1 | 6.70 | 25600 nM | 5.82
19 | CC(NCc1cc(-c2ccccc2)ccc1O)c1cccc2ccccc12 (stereo not drawn) | 7.11 | > 10000 nM | 5.92
20 | COc1ccc(NC2=C(c3ccc(C(F)(F)F)cc3)C(=O)c3ccccc32)cc1 | 6.11 | > 100000 nM | 6.47
21 | CCN(CC)c1ccc(NC(=O)c2cccs2)cc1 | 6.11 | > 100000 nM | 6.38
22 | Oc1c(CN2CCCCC2)ccc2ccccc12 | 6.14 | > 100000 nM | 5.25
23 | C[n+]1c2n(c3ccccc31)N=C(c1ccccc1)CS2 | 6.46 | 45100 nM | 6.34
24 | COc1ccc(CN2CCN(Cc3ccc(OC)c(C)c3C)C(CCO)C2)c(O)c1 (stereo not drawn) | 6.50 | > 44200 nM | 5.78

Row | Compound | pEC50 (Plasmodium falciparum [1]) | CC50 [2] | pEC50 (Plasmodium falciparum [3])
25 | N#Cc1c(N)nc2sc(C(=O)Nc3ccc(Br)cc3)c(N)c2c1-c1ccccc1 | 6.12 | > 100000 nM | 5.09
26 | CCOC(=O)c1c(C)[n+](-c2ccc(C)cc2)c(CC)c2cc(OC)c(OC)cc12 | 6.17 | > 94000 nM | 6.15
27 | CC(C)(C)CC(C)(C)Nc1c(-c2ccccc2OC(=O)c2ccc(Cl)c(Cl)c2)nc2ccccn12 | 7.14 | > 10000 nM | 6.04
28 | CC(Oc1cccc(Cl)c1)C(=O)N1CCc2ccccc21 (stereo not drawn) | 6.12 | > 100000 nM | 6.13
29 | Cc1ccn2c(NC(C)(C)CC(C)(C)C)c(-c3ccccc3OC(=O)C3CCC3)nc2c1 | 7.12 | > 10000 nM | 6.09
30 | COc1cc2nc(Nc3ccc(F)cc3)nc(N)c2cc1OC | 6.86 | 18400 nM | 6.93
31 | COc1cc(CN2CCC3(CC2)CC3C(=O)NCCc2ccccc2OC)ccc1O (stereo not drawn) | 6.13 | > 100000 nM | 5.63
32 | Cc1cc(C)nc(NNc2c([N+](=O)[O-])cccc2[N+](=O)[O-])n1 | 6.78 | 22000 nM | 5.74
33 | CC(=O)Nc1ccc(S(=O)(=O)N2CCC(c3nc(-c4cccnc4)no3)CC2)cc1 | 6.13 | > 100000 nM | < 5.02
34 | CCC(=O)NNc1cc(N2CCCC2)nc(N2CCCC2)n1 | 6.12 | > 100000 nM | 6.10
35 | CCCN(CCC)S(=O)(=O)c1cc(Br)cc2c1N(C(=O)CC)CC2 | 6.12 | > 100000 nM | 6.32
36 | Cc1ccc(-[n+]2c(-c3ccccc3)cn3c2CCCCC3)cc1 | 6.29 | 67800 nM | 6.22
37 | CCOC(=O)c1c(N=Cc2cccc(OC)c2O)sc2c1CCN(C)C2 | 6.13 | > 100000 nM | < 4.90
38 | CCCCOc1ccc(N(C(C)=O)C2=C(N3CCOCC3)C(=O)c3ccccc3C2=O)cc1 | 6.52 | 41000 nM | 6.64
39 | CCCCCCCCC(=O)Oc1ccccc1-c1nc2cc(C)ccn2c1NC(C)(C)CC(C)(C)C | 7.13 | > 10000 nM | 6.15
40 | COc1ccc(Nc2nc(NN=Cc3cc([N+](=O)[O-])ccc3OC)nc(Nc3ccc([N+](=O)[O-])cc3)n2)cc1 | 6.12 | > 100000 nM | 6.14
41 | CCOC(=O)NN=C(C)c1ccc(C(C)=NNC(=O)OCC)cc1 | 6.13 | > 100000 nM | < 5.25
42 | Clc1ccc(-c2csc3ncnc(NCc4ccncc4)c23)cc1 | 6.13 | > 100000 nM | 5.54
43 | OC(CN1CCN(Cc2ccccc2)CC1)Cn1c2ccc(I)cc2c2cc(I)ccc21 (stereo not drawn) | 6.83 | 20100 nM | 6.19
44 | O=c1sc(=NCC(O)c2ccc(Cl)c(Cl)c2)[nH]c2ccccc12 (stereo not drawn) | 7.14 | > 10000 nM | 6.12
45 | CCCNC1=C(c2ccc(OC)cc2)C(=O)c2ccccc21 | 6.12 | > 100000 nM | 5.47
46 | CCOc1cccc(Nc2cc(C)nc3ncnn23)c1 | 6.14 | > 100000 nM | 6.17
47 | CN(C)c1ccc(/C=C/C(=O)NC(=O)c2ccccc2O)cc1 | 7.12 | > 10000 nM | 7.07
48 | CCOc1ccc2[nH]c3c(NCCCN4CCOCC4)ncnc3c2c1 | 6.57 | 36400 nM | 6.13

Row | Compound | pEC50 (Plasmodium falciparum [1]) | CC50 [2] | pEC50 (Plasmodium falciparum [3])
49 | CC[n+]1c(C)n(-c2ccccc2)c2ccc(C3Nc4ccccc4S3)cc21 (stereo not drawn) | 6.13 | > 100000 nM | 5.93
50 | COc1nncc(-c2cnnc(SC)n2)n1 | 6.66 | 28400 nM | 6.63
51 | CCn1c(SCCCCNC(=O)c2cc([N+](=O)[O-])cc([N+](=O)[O-])c2)nc(-c2ccc(C)cc2)c1-c1ccc(C)cc1 | 7.14 | > 10000 nM | 6.17
52 | CCc1ccc(-n2nnc(C(=O)Nc3ccccc3Cl)c2C)cc1 | 7.11 | > 10000 nM | < 5.77
53 | Cc1oc(C)c2c(=O)cc(-c3cccs3)cc(O)c12 | 6.12 | > 100000 nM | 5.91
54 | COc1ccc2c(c1)CC1c3c(cc4c(c3-2)OCO4)CCN1C (stereo not drawn) | 6.92 | 15600 nM | 7.41
55 | CCc1c2ccc(C)n2cc[n+]1CC | 6.13 | > 100000 nM | 6.21
56 | COc1ccc2cc(CNCCc3cccc(Cl)c3)c(N3CCC(=O)N(CCN(C)C)CC3)nc2c1 | 7.11 | > 10000 nM | < 5.90
57 | Cc1cccc(C)c1-n1c(SCc2cccc(F)c2)nc2c(sc(=S)n2-c2c(C)cccc2C)c1=O | 6.14 | > 100000 nM | 5.29
58 | COc1ccc(OC)c(-c2ccc(O)c(CNCCc3ccccc3)c2)c1 | 7.11 | > 10000 nM | 6.18
59 | COc1ccc(S(=O)(=O)N=C2C=C(Nc3ccccc3OC)C(=O)c3ccccc32)cc1 | 6.81 | 20100 nM | 6.47
60 | CCc1ccc(Nc2cc(C)nc3nc(C)nn23)cc1 | 6.11 | > 100000 nM | 6.24
61 | Cc1cccc(C(=O)NCc2nnc(S)n2-c2cccc(C(F)(F)F)c2)c1 | 6.12 | > 100000 nM | 5.66
62 | O=C(c1cc2n(n1)C(C(F)(F)F)CC(c1cccs1)N2)N1CCN(C(c2ccccc2)c2ccccc2)CC1 (stereo not drawn) | 6.13 | > 100000 nM | 6.47
63 | COc1cc(CN(CC[C@H](c2ccccc2)c2c(O)ccc3ccccc23)Cc2ccccc2)cc(OC)c1 | 7.12 | > 10000 nM | 6.15
64 | Cc1cc(C)n(CC(O)Cn2c3ccc(Cl)cc3c3cc(Cl)ccc32)n1 (stereo not drawn) | 6.47 | 45500 nM | 5.99
65 | CCCN(CCC)S(=O)(=O)c1cc(Br)cc2c1N(C(=O)C1CC1)CC2 | 6.13 | > 100000 nM | 6.39
66 | Cc1ccn2c(NC(C)(C)CC(C)(C)C)c(-c3ccccc3OC(=O)C(C)(C)CCl)nc2c1 | 7.12 | > 10000 nM | 6.16
67 | CN1C2CCC1C(=Cc1ccsc1)C(=O)C2=Cc1ccsc1 | 6.13 | > 100000 nM | 6.17
68 | c1ccc(Cn2c(N=Nc3c(Nc4ccccc4)ccc4ccccc34)nc3ccccc32)cc1 | 6.17 | 88000 nM | 5.56
69 | CCCCOC(=O)c1ccc(NC2=C(c3ccc(OC)cc3)C(=O)c3ccccc32)cc1 | 6.12 | > 100000 nM | 5.92
70 | COc1ccc2nc(C)cc(NN=Cc3cccs3)c2c1 | 6.87 | 18400 nM | 6.80
71 | CCC1=[N+](C)c2cccc3cccc(c23)N1C | 6.13 | > 100000 nM | 6.02
